Results reported in ChEMBL document CHEMBL3600303, “The N-Terminal T-T Motif of a Third-Generation HIV-1 Fusion Inhibitor Is Not Required for Binding Affinity and Antiviral Activity” (J Med Chem, 2015).
pIC50: −log10 of the molar value. The source made the active and inactive calls. The rule behind the calls is not given here.

Legend:
[1] = target: Envelope glycoprotein gp160 (Human immunodeficiency virus 1) (UniProt Q72502); experiment: Binding affinity to HIV1 NL4-3 gp41 N-terminal heptad repeat I37T mutant after 30 mins by CD spectroscopic analysis
[2] = test system: Human immunodeficiency virus 1; experiment: Antiviral activity against wild type HIV-1; format: functional, organism-based
[3] = test system: Human immunodeficiency virus 1; experiment: Antiviral activity against HIV1 NL4-3 pseudovirus infected in human TZM-bl cells assessed as inhibition of viral entry into cells after 48 hrs by single-cycle infection assay; format: functional, organism-based; conditions: Human immunodeficiency virus 1, NL4-3, TZM-bl
[4] = test system: Human immunodeficiency virus 1; experiment: Antiviral activity against ENF-resistant HIV1 NL4-3 harboring gp41 N-terminal heptad repeat Q40H mutant infected in human TZM-bl cells assessed as inhibition of viral entry into cells after 48 hrs by single-cycle infection assay; format: functional, organism-based
[5] = test system: Human immunodeficiency virus 1; experiment: Antiviral activity against ENF-resistant HIV1 NL4-3 harboring gp41 N-terminal heptad repeat V38A mutant infected in human TZM-bl cells assessed as inhibition of viral entry into cells after 48 hrs by single-cycle infection assay; format: functional, organism-based
[6] = test system: Human immunodeficiency virus 1; experiment: Antiviral activity against wild type HIV1 NL4-3 infected in human TZM-bl cells assessed as inhibition of viral entry into cells after 48 hrs by single-cycle infection assay; format: functional, organism-based; conditions: Human immunodeficiency virus 1, NL4-3, TZM-bl
[7] = test system: Human immunodeficiency virus 1; experiment: Ratio of IC50 for ENF-resistant HIV1 NL4-3 harboring gp41 N-terminal heptad repeat D36G mutant to IC50 for wild type HIV1 NL4-3; format: functional
[8] = test system: Envelope glycoprotein gp160 (Human immunodeficiency virus 1), Q72502 [V38A]; experiment: Binding affinity to HIV1 NL4-3 gp41 N-terminal heptad repeat V38A mutant after 30 mins by CD spectroscopic analysis
[9] = test system: Human immunodeficiency virus 1; experiment: Ratio of IC50 for ENF-resistant HIV1 NL4-3 harboring gp41 N-terminal heptad repeat I37T/N43K double mutant to IC50 for wild type HIV1 NL4-3; format: functional
[10] = test system: Human immunodeficiency virus 1; experiment: Ratio of IC50 for ENF-resistant HIV1 NL4-3 harboring gp41 N-terminal heptad repeat I37T mutant to IC50 for wild type HIV1 NL4-3; format: functional
[11] = test system: Human immunodeficiency virus 1; experiment: Antiviral activity against HIV-1 SF162 pseudovirus infected in human TZM-bl cells assessed as inhibition of viral entry into cells after 48 hrs by single-cycle infection assay; format: functional, organism-based; conditions: Human immunodeficiency virus 1, SF162, TZM-bl
[12] = target: Envelope glycoprotein gp160 (Human immunodeficiency virus 1) (UniProt Q72502); experiment: Binding affinity to HIV1 NL4-3 gp41 N-terminal heptad repeat I37T/N43K double mutant after 30 mins by CD spectroscopic analysis
[13] = test system: Human immunodeficiency virus 1; experiment: Ratio of IC50 for ENF-resistant HIV1 NL4-3 harboring gp41 N-terminal heptad repeat Q40H mutant to IC50 for wild type HIV1 NL4-3; format: functional
[14] = test system: Human immunodeficiency virus 1; experiment: Antiviral activity against HIV-1 ZM214M.15 pseudovirus infected in human TZM-bl cells assessed as inhibition of viral entry into cells after 48 hrs by single-cycle infection assay; format: functional, organism-based; conditions: Human immunodeficiency virus 1, ZM214M.15, TZM-bl
[15] = test system: Human immunodeficiency virus 1; experiment: Antiviral activity against ENF-resistant HIV1 NL4-3 harboring gp41 N-terminal heptad repeat V38M mutant infected in human TZM-bl cells assessed as inhibition of viral entry into cells after 48 hrs by single-cycle infection assay; format: functional, organism-based
[16] = test system: Human immunodeficiency virus 1; experiment: Antiviral activity against wild type HIV1 NL4-3 infected in human TZM-bl cells assessed as inhibition of viral replication after 2 days by luciferase reporter gene assay; format: functional, organism-based; conditions: Human immunodeficiency virus 1, NL4-3, TZM-bl, 48 h
[17] = target: Envelope glycoprotein gp160 (Human immunodeficiency virus 1) (UniProt Q72502); experiment: Binding affinity to HIV1 NL4-3 gp41 N-terminal heptad repeat G36D mutant after 30 mins by CD spectroscopic analysis
[18] = test system: Human immunodeficiency virus 1; experiment: Ratio of IC50 for ENF-resistant HIV1 NL4-3 harboring gp41 N-terminal heptad repeat V38M mutant to IC50 for wild type HIV1 NL4-3; format: functional
[19] = target: Envelope glycoprotein gp160 (Human immunodeficiency virus 1) (UniProt Q72502); experiment: Binding affinity to HIV1 NL4-3 gp41 N-terminal heptad repeat V38A/N42T double mutant after 30 mins by CD spectroscopic analysis
[20] = test system: Human immunodeficiency virus 1; experiment: Ratio of IC50 for ENF-resistant HIV1 NL4-3 harboring gp41 N-terminal heptad repeat V38A/N42T double mutant to IC50 for wild type HIV1 NL4-3; format: functional
[21] = Thermostability of the compound in PBS assessed as melting temperature at 20 uM by CD spectroscopic analysis; format: physicochemical; conditions: buffer
[22] = test system: Human immunodeficiency virus 1; experiment: Antiviral activity against ENF-resistant HIV1 NL4-3 harboring gp41 N-terminal heptad repeat N43K mutant infected in human TZM-bl cells assessed as inhibition of viral entry into cells after 48 hrs by single-cycle infection assay; format: functional, organism-based
[23] = test system: Human immunodeficiency virus 1; experiment: Antiviral activity against ENF-resistant HIV1 NL4-3 harboring gp41 N-terminal heptad repeat I37T mutant infected in human TZM-bl cells assessed as inhibition of viral entry into cells after 48 hrs by single-cycle infection assay; format: functional, organism-based
[24] = test system: Human immunodeficiency virus 1; experiment: Ratio of IC50 for ENF-resistant HIV1 NL4-3 harboring gp41 N-terminal heptad repeat V38A mutant to IC50 for wild type HIV1 NL4-3; format: functional
[25] = test system: Human immunodeficiency virus 1; experiment: Ratio of IC50 for ENF-resistant HIV1 NL4-3 harboring gp41 N-terminal heptad repeat N43K mutant to IC50 for wild type HIV1 NL4-3; format: functional
[26] = test system: Human immunodeficiency virus 1; experiment: Antiviral activity against HIV-1 pseudovirus harboring Q66R/N126K double mutant; format: functional, organism-based
[27] = test system: Human immunodeficiency virus 1; experiment: Antiviral activity against ENF-resistant HIV1 NL4-3 harboring gp41 N-terminal heptad repeat I37T/N43K double mutant infected in human TZM-bl cells assessed as inhibition of viral entry into cells after 48 hrs by single-cycle infection assay; format: functional, organism-based
[28] = test system: Human immunodeficiency virus 1; experiment: Ratio of IC50 for ENF-resistant HIV1 NL4-3 harboring gp41 N-terminal heptad repeat D36S/V38M double mutant to IC50 for wild type HIV1 NL4-3; format: functional
[29] = test system: Human immunodeficiency virus 1; experiment: Antiviral activity against ENF-resistant HIV1 NL4-3 harboring gp41 N-terminal heptad repeat D36G mutant infected in human TZM-bl cells assessed as inhibition of viral entry into cells after 48 hrs by single-cycle infection assay; format: functional, organism-based
[30] = target: Envelope glycoprotein gp160 (Human immunodeficiency virus type 1 group M subtype B (isolate HXB2)(HIV-1)) (UniProt P04578); experiment: Binding affinity to HIV-1 HXB2 gp41 N-terminal heptad repeat assessed as thermostability of protein-compound complex at 10 uM after 30 mins by CD spectroscopic analysis; conditions: Human immunodeficiency virus 1
[31] = test system: Human immunodeficiency virus 1; experiment: Antiviral activity against ENF-resistant HIV1 NL4-3 harboring gp41 N-terminal heptad repeat D36S/V38M double mutant infected in human TZM-bl cells assessed as inhibition of viral entry into cells after 48 hrs by single-cycle infection assay; format: functional, organism-based
[32] = test system: Human immunodeficiency virus 1; experiment: Antiviral activity against HIV-1 SC42261.8 pseudovirus infected in human TZM-bl cells assessed as inhibition of viral entry into cells after 48 hrs by single-cycle infection assay; format: functional, organism-based; conditions: Human immunodeficiency virus 1, SC42261.8, TZM-bl
[33] = test system: Human immunodeficiency virus 1; experiment: Antiviral activity against ENF-resistant HIV1 NL4-3 harboring gp41 N-terminal heptad repeat V38A/N42T double mutant infected in human TZM-bl cells assessed as inhibition of viral entry into cells after 48 hrs by single-cycle infection assay; format: functional, organism-based
[34] = target: Envelope glycoprotein gp160 (Human immunodeficiency virus type 1 group M subtype B (isolate HXB2)(HIV-1), UniProt P04578); experiment: Binding affinity to HIV-1 HXB2 gp41 N-terminal heptad repeat assessed as inhibition of 6-helix bundle formation after 30 mins by ELISA; design: species or system Human immunodeficiency virus 1
[35] = target: Envelope glycoprotein gp160 (Human immunodeficiency virus 1) (UniProt Q72502); experiment: Binding affinity to HIV1 NL4-3 gp41 N-terminal heptad repeat N43K mutant after 30 mins by CD spectroscopic analysis
[36] = target: Envelope glycoprotein gp160 (Human immunodeficiency virus 1) (UniProt Q72502); experiment: Binding affinity to HIV1 NL4-3 gp41 N-terminal heptad repeat Q40H mutant after 30 mins by CD spectroscopic analysis
Serum = experiment: Metabolic stability in Sprague-Dawley rat serum at 4 mg/kg, ip measured at 0.5 to 2 hrs post dose; format: ADME, organism-based; conditions: in vivo

CC[C@H](C)[C@H](NC(=O)[C@H](C)NC(=O)[C@H](CCCNC(=N)N)NC(=O)[C@H](CC(=O)O)NC(=O)[C@H](Cc1c[nH]c2ccccc12)NC(=O)[C@H](C)NC(=O)[C@H](CCC(=O)O)NC(=O)[C@H](Cc1c[nH]c2ccccc12)NC(=O)[C@@H](NC(=O)[C@@H](N)[C@@H](C)O)[C@@H](C)O)C(=O)N[C@@H](C)C(=O)N[C@@H](CCC(=O)O)C(=O)N[C@@H](Cc1ccc(O)cc1)C(=O)N[C@@H](C)C(=O)N[C@@H](C)C(=O)N[C@@H](CCCNC(=N)N)C(=O)N[C@H](C(=O)N[C@@H](CCC(=O)O)C(=O)N[C@@H](C)C(=O)N[C@@H](CC(C)C)C(=O)N[C@H](C(=O)N[C@@H](CCCNC(=N)N)C(=O)N[C@@H](C)C(=O)N[C@@H](C)C(=O)N[C@@H](CCC(N)=O)C(=O)N[C@@H](CCC(=O)O)C(=O)N[C@@H](CCC(N)=O)C(=O)N[C@@H](CCC(N)=O)C(=O)N[C@@H](CCC(=O)O)C(=O)N[C@@H](CCCCN)C(=O)N[C@@H](CC(N)=O)C(=O)N[C@@H](CCC(=O)O)C(=O)N[C@@H](C)C(=O)N[C@@H](C)C(=O)N[C@@H](CC(C)C)C(=O)N[C@@H](CCCNC(=N)N)C(=O)N[C@@H](CCC(=O)O)C(=O)N[C@@H](CC(C)C)C(=O)O)[C@@H](C)CC)[C@@H](C)CC
Activity [1]: Active | pIC50 [2]: 8.88 | pIC50 [3]: 8.94 | pIC50 [4]: 8.85 | pIC50 [5]: 8.89 | pIC50 [6]: 8.96 | Ratio IC50 [7]: 1.6 | Activity [8]: Active | Ratio IC50 [9]: 1.6 | Ratio IC50 [10]: 1.6 | pIC50 [11]: 7.90 | Activity [12]: Active | Ratio IC50 [13]: 1.3 | pIC50 [14]: 9.17 | pIC50 [15]: 8.74 | pIC50 [16]: 9.28 | Activity [17]: Active | Ratio IC50 [18]: 1.6 | Activity [19]: Active | Ratio IC50 [20]: 0.7 | Tm [21]: 45.1 °C | pIC50 [22]: 8.68 | pIC50 [23]: 8.74 | Ratio IC50 [24]: 1.2 | Ratio IC50 [25]: 1.9 | pIC50 [26]: 8.08 | pIC50 [27]: 8.77 | Ratio IC50 [28]: 1.1 | pIC50 [29]: 8.77 | Tm [30]: 82.2 °C | pIC50 [31]: 8.92 | pIC50 [32]: 8.58 | pIC50 [33]: 9.10 | pIC50 [34]: 7.17 | Activity [35]: Active | Activity [36]: Active | Stability (Serum): Stable
